Reference: publication PMC6437697 (Journal of Medicinal Chemistry, 2019)

Assays:
Assay in all cases: KINOMEscan
Type in all cases: binding
Settings in all cases: read-out: % control activity remaining
PIK3CA(E542K) = target: T1, PIK3CA(E542K (Homo sapiens, UniProt P42336, E542K))
T1 construct: purchased Eurofins DiscoverX KINOMEscan

ABL1-nonphosphorylated = target: T2, ABL1-nonphosphorylated (Homo sapiens, UniProt P00519)
T2 construct: purchased Eurofins DiscoverX KINOMEscan

EPHA6 = target: T3, EPHA6 (Homo sapiens, UniProt Q9UF33)
T3 construct: purchased Eurofins DiscoverX KINOMEscan
T3 sequence (Q9UF33 23-1036): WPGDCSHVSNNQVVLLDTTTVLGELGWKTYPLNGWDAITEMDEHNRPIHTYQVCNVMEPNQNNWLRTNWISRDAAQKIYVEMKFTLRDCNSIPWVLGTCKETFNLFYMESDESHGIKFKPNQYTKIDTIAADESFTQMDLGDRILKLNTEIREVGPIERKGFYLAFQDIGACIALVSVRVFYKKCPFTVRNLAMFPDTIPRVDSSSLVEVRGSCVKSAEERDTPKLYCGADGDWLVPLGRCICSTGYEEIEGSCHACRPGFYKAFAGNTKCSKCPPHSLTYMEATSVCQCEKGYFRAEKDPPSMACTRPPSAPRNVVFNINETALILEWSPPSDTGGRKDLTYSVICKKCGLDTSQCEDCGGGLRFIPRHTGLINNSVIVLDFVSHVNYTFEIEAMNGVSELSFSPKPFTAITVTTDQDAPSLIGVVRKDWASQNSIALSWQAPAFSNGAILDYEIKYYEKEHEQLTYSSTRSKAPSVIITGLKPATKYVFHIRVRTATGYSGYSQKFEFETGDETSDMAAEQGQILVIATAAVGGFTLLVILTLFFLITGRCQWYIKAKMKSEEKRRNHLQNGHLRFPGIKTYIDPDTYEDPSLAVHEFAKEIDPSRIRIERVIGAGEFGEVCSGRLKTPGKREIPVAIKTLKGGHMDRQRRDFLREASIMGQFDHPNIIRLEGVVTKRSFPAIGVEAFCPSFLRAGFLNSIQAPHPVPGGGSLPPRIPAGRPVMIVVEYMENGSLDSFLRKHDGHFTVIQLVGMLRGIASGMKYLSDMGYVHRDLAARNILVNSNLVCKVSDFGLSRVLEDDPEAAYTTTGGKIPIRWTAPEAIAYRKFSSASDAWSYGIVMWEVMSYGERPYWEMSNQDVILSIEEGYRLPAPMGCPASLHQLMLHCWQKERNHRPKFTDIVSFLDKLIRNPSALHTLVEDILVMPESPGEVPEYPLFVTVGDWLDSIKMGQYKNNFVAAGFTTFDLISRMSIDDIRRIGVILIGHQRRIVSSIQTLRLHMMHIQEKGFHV

TNNI3K = target: T4, TNNI3K (Homo sapiens, UniProt Q59H18)
T4 construct: purchased Eurofins DiscoverX KINOMEscan
T4 sequence (Q59H18 1-835): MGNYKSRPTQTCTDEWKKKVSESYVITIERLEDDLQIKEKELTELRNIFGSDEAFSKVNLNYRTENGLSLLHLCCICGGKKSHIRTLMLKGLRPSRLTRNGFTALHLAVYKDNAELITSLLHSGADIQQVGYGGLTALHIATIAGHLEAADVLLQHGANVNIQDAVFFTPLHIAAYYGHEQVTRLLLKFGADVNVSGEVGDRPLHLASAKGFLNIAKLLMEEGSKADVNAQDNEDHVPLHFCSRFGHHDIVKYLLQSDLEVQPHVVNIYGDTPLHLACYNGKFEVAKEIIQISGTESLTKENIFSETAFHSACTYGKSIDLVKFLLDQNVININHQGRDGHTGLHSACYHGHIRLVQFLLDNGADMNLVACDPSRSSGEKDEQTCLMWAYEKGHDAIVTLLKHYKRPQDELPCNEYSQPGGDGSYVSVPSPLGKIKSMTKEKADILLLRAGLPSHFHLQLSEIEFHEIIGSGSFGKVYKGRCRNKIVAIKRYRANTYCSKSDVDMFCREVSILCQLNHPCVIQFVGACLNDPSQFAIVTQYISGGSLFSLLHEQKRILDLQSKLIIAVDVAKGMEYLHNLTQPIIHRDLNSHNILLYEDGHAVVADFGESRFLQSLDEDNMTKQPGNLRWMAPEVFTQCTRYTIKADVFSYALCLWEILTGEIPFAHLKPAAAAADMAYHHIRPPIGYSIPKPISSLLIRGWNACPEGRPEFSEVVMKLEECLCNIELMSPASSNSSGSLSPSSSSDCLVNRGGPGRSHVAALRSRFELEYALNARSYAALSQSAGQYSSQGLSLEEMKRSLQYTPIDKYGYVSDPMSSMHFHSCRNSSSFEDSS

STK33 = target: T5, STK33 (Homo sapiens, UniProt Q9BYT3)
T5 construct: purchased Eurofins DiscoverX KINOMEscan
T5 sequence (Q9BYT3 whole entry): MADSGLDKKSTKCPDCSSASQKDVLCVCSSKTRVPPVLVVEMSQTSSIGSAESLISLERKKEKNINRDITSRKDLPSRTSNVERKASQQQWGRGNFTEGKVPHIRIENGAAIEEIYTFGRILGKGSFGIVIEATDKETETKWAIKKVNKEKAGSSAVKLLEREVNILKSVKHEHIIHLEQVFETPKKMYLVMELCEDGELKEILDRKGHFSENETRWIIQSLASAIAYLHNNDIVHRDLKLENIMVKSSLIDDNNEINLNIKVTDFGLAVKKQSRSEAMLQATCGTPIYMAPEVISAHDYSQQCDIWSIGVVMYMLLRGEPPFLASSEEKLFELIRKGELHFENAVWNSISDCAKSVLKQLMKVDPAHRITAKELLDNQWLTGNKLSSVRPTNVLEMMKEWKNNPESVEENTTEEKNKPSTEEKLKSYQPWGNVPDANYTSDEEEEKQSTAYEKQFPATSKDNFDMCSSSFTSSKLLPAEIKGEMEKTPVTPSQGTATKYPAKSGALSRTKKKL

MARK2 = target: T6, MARK2 (Homo sapiens, UniProt Q7KZI7)
T6 construct: purchased Eurofins DiscoverX KINOMEscan
T6 sequence (Q7KZI7 whole entry): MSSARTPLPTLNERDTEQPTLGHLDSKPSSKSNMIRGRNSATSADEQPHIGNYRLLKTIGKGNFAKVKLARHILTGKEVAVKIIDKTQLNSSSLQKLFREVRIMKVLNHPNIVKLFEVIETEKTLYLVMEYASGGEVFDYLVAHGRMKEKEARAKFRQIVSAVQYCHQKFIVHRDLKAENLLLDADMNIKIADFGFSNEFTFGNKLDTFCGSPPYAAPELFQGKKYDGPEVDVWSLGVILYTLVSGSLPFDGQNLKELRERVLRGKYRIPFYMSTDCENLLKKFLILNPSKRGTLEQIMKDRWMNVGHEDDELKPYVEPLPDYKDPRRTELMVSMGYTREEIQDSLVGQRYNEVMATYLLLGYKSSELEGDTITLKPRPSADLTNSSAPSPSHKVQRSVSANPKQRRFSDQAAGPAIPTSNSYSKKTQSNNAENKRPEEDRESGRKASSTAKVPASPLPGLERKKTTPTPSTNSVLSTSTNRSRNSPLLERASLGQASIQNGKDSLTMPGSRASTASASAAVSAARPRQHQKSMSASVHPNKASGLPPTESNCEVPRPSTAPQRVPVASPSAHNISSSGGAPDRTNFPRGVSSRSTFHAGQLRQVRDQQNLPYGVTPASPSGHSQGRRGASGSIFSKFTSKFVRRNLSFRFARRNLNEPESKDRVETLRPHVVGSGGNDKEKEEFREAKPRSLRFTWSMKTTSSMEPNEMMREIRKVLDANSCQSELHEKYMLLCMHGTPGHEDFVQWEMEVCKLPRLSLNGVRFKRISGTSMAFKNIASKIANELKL

VEGFR2 = target: T7, VEGFR2 (Homo sapiens, UniProt P35968)
T7 construct: purchased Eurofins DiscoverX KINOMEscan
T7 sequence (P35968 20-1356): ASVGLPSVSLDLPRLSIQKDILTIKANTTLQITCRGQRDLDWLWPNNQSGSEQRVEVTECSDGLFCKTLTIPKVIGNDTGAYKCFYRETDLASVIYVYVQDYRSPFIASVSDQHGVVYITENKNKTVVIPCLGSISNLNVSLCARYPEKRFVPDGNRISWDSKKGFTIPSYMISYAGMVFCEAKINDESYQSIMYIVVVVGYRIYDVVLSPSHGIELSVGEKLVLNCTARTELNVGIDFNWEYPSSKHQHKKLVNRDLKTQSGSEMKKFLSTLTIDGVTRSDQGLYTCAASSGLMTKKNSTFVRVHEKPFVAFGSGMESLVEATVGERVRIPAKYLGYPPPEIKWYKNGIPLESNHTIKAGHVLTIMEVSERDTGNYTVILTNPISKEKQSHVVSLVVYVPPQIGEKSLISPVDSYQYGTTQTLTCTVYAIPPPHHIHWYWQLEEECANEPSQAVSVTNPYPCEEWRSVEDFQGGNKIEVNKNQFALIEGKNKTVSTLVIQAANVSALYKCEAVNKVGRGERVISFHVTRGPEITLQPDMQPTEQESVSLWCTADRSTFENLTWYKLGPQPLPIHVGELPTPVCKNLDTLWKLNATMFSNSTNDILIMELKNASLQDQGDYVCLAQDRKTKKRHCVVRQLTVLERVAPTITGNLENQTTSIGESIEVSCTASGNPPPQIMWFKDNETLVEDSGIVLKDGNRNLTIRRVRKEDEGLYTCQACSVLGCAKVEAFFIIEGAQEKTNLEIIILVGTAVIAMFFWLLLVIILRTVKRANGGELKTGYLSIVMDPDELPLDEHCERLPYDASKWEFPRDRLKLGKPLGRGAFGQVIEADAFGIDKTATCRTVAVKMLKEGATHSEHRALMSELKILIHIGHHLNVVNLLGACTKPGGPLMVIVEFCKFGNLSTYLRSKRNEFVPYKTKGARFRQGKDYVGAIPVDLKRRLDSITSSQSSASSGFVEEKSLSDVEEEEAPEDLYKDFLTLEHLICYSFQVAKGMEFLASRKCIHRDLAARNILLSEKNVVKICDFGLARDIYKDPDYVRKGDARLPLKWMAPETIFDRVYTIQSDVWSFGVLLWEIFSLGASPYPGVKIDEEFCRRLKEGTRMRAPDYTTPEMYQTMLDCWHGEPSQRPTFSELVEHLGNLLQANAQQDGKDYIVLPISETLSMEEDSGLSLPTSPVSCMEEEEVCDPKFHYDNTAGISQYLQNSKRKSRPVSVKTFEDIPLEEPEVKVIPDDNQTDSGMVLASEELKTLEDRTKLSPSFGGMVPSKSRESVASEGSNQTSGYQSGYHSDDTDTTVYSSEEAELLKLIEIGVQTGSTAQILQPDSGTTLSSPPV

T2 sequence (P00519 whole entry): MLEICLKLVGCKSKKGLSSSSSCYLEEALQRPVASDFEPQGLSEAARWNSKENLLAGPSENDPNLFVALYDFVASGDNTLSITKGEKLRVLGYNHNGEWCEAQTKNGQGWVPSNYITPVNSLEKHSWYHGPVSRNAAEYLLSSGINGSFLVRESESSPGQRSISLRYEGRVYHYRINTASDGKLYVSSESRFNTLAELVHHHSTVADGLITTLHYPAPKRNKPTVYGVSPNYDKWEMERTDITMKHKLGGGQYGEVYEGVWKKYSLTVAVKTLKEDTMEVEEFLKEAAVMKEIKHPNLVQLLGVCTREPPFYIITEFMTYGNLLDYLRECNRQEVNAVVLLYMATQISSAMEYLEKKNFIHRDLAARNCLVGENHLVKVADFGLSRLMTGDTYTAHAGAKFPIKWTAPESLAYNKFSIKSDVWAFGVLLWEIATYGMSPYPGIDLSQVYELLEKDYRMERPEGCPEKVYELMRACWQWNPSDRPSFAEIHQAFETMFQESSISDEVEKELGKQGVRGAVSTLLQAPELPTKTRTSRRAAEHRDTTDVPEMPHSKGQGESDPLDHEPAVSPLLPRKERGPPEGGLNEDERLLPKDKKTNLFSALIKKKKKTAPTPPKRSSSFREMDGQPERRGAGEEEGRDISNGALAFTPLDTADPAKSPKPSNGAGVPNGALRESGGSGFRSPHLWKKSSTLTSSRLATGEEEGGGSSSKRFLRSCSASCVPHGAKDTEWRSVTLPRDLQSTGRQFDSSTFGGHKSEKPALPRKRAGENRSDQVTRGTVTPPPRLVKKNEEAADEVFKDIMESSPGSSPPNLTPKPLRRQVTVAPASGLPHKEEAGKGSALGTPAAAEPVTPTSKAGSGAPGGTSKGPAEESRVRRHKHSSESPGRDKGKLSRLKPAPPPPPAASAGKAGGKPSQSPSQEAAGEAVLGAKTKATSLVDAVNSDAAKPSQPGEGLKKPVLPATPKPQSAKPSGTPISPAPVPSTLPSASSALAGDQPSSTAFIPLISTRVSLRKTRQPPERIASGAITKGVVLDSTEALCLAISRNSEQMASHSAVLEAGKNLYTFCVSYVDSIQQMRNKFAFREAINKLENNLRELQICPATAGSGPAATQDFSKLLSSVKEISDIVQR
T1 sequence (P42336 whole entry E542K): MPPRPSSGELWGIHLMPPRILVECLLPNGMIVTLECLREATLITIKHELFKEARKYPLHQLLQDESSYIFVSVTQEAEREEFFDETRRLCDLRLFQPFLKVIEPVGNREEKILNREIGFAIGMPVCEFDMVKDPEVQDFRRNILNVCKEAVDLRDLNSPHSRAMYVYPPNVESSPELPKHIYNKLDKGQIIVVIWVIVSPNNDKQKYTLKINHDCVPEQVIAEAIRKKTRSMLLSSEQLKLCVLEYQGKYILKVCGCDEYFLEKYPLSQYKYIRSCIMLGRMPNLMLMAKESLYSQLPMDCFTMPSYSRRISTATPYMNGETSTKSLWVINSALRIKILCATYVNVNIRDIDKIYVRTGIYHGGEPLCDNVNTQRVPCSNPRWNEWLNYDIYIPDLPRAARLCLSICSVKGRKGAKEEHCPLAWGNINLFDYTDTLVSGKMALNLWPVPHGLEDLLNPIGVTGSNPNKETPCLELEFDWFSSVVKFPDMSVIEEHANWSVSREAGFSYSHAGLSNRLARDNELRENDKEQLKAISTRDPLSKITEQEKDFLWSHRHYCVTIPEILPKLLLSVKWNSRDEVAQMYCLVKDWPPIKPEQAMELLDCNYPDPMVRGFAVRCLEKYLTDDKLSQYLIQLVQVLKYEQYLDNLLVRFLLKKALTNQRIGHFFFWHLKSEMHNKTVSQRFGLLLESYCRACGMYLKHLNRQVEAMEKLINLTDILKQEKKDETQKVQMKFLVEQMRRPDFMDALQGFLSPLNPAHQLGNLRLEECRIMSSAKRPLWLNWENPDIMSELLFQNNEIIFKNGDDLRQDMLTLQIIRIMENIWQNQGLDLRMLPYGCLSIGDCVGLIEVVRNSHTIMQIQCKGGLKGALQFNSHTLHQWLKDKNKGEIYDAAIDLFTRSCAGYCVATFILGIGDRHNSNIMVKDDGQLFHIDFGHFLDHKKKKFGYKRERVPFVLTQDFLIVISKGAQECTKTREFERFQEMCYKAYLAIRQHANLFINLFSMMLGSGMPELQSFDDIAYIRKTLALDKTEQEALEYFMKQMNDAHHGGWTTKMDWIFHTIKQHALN

Row | SMILES | remaining binding at 1 µM (PIK3CA(E542K)) [%] | remaining binding at 1 µM (ABL1-nonphosphorylated) [%] | remaining binding at 1 µM (EPHA6) [%] | remaining binding at 1 µM (TNNI3K) [%] | remaining binding at 1 µM (STK33) [%] | remaining binding at 1 µM (MARK2) [%] | remaining binding at 1 µM (VEGFR2) [%]
1 | CN1CCC(CNc2cc(Cl)nn3c(-c4cc5nc(Nc6ccccc6)[nH]c5cc4F)cnc23)CC1 [compound 31, 6-Chloro-3-(6-fluoro-2-(phenylamino)-1H-benzo[d]imidazol-5-yl)-N-((1-methylpiperidin-4-yl)methyl)imidazo[1,2-b]pyridazin-8-amine] | 65 | 58 | 82 | 100 | 100 | 100 | 71
2 | O=C(CN1CCOCC1)N[C@H]1CC[C@H](Nc2cc(Cl)nn3c(-c4ccc5[nH]ncc5c4)cnc23)CC1 [compound 26] | 93 | 44 | 93 | 100 | 25 | 88 | 35
3 | Clc1cc(NCC2CC2)c2ncc(-c3ccc4[nH]ncc4c3)n2n1 [compound 2, 6-Chloro-N-(cyclopropylmethyl)-3-(1H-indazol-5-yl)imidazo[1,2-b]pyridazin-8-amine] | 72 | 76 | 79 | 97 | 47 | 96 | 79
